Data set [1] concerns the target T1, human GIP receptor (Homo sapiens, UniProt P48546).
T1 construct: host or cells: COS-7
T1 sequence (P48546 22-466): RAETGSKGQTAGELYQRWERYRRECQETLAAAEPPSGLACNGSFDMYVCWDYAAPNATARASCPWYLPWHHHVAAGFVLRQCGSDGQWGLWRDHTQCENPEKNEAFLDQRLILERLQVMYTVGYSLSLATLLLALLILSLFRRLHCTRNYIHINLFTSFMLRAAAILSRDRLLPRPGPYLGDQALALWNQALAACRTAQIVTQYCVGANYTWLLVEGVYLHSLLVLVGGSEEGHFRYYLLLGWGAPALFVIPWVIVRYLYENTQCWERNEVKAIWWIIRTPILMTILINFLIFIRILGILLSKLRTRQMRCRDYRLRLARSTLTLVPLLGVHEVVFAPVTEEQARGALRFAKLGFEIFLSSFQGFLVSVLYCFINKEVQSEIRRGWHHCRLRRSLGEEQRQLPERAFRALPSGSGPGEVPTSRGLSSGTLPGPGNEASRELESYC
Kind of data set: cAMP accumulation, agonism (intrinsic activity) in transfected COS‐7 cells. The conditions noted are these: increasing concentrations of ligand alone, 30 min, COS‐7, n = 5. It is filed as cell-based. On the procedure: (§1) COS‐7 cells were cultured at 10% CO2 and 37°C in Dulbecco's Modified Eagle Medium 1885 supplemented with 10% foetal bovine serum, 2‐mM glutamine, 180‐units ml^−1 penicillin and […] streptomycin. Transient transfection of the cells with either human or mouse GIP receptor was performed using the calcium phosphate precipitation method as previously described (van der Velden et al., [2021]). A second set of cells was transiently transfected with either mouse GLP‐1 or GLP‐2 receptor. Following the day after transfection, the cells were seeded in white 96‐well plates with a density of 35.000 cells per well. The next day the assay was initiated by washing the cells with HEPES buffered saline (HBS) followed by an incubation step with HBS and 1‐mM 3‐isobutyl‐1‐methylxanthine for 30 min at 37°C. For agonist studies, the ligands were then added and incubated for an additional 30 min at 37°C. To test for antagonistic properties, the cells were first preincubated for 10 min with the antagonist with subsequent addition of the agonist and incubated for an additional 20 min. The HitHunter® cAMP assay (Eurofins DiscoverX, Fremont, USA) was carried out according to the manufacturer's protocol. Luminescence was measured by PerkinElmer™ Envision 2014 Multilabel Reader.
(§2) To facilitate comparisons of assay outputs (cAMP assays), the results (of duplicate measurements) were normalized, with the response to 10 pM of GIP(1‐42) set as 100%. All ligand concentrations are reported as log‐transformed. The IC50 log values can be found in Figure 1. In Figure 3c, we have subtracted glucose levels from baseline to show the net differences in glucose levels in our different treatment groups.
(§3) FIGURE 1 In vitro signalling profile of mGIPAnt‐1 on the mouse and human glucose‐dependent insulinotropic polypeptide receptor/(GIPR). COS‐7 cells were transiently transfected with (a) mouse GIPR or (b) human GIPR and assayed for cAMP accumulation. To test for agonism, increasing concentration of the ligand was added. […]
In general terms: cAMP levels reflect the balance of adenylyl cyclase and phosphodiesterase activity.

Data set [2] deals with T2, mouse GIP receptor (Mus musculus, UniProt Q0P543).
T2 construct: host or cells: COS-7
T2 sequence (Q0P543 19-460): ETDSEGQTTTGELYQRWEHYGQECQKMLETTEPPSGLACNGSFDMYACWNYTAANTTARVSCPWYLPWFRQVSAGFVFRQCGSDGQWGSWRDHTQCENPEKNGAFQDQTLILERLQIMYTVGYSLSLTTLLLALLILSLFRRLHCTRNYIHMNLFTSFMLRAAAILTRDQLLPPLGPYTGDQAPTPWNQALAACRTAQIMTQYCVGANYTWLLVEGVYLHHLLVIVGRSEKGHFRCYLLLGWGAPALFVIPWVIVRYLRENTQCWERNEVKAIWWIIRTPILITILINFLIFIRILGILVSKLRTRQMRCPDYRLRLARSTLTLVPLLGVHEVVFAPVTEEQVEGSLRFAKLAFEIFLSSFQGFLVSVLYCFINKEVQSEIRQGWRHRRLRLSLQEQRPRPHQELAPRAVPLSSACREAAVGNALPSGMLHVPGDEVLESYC
Described as above. It is filed as cell-based. As to conditions: increasing concentrations of ligand alone, 30 min, COS‐7, n = 5. The procedure: as §1, §2, §3

Data set [3] can be described thus: Pharmacokinetic analysis after s.c. administration, plasma radioimmunoassay. It is filed as in vivo. The conditions noted are these: sc, female C57Bl/6 mice, single s.c. 300 nmol·kg−1 (6 nmol per mouse), in‐house radioimmunoassay. On the procedure: To assess mGIPAnt‐1 half‐life following subcutaneous (s.c.) administration, mice (n = 6) received a single s.c. administration of 300‐nmol·kg^−1 mGIPAnt‐1. Retro‐orbital blood samples (50 μl) were taken using EDTA coated glass capillaries at (1) t = 0, 0.5, 1, 1.5, 2 and 2.5 h, (2) t = 2.5, 3, 4, 6, 8 and 22 h, or (3) t = 22, 24, 26, 28, 30 and 32 h and immediately added to Eppendorf tubes (Eppendorf, Hamburg, Germany) and centrifuged at 3500g, 20 min, 4°C. Plasma was transferred into Eppendorf tubes on dry ice and stored at −20°C for analysis.
mGIPAnt‐1 levels were measured by an in‐house radioimmunoassay using a polyclonal antibody recognizing a mid‐regional part of GIP (code no. 95234) (Gasbjerg et al., [2017]). mGIPAnt‐1 was used as standard and the assay buffer was a 80‐mM phosphate buffer pH 7.5, containing (in final concentrations) 0.1% HSA, 10‐mM EDTA, 500‐KIU ml^−1 aprotinin and 0.01‐mM valine pyrrolidide. Samples were carefully diluted to ensure that samples would fall within the measurable range of the assay. […]
Results are presented as mean ± SE. Data were analysed with one‐way and two‐way analysis of variance (ANOVA) with Tukey's or Sidak multiple comparisons test and Student's unpaired t tests where appropriate. […] For the in vitro data IC50 values were determined by nonlinear regression using GraphPad Prism 9 (San Diego, California, USA). […]

Each structure is given as a SMILES string. Where a SMILES comes first, the peptide text is derived from it. The star is where a group is joined. C16 diacid = O=C(O)CCCCCCCCCCCCCCC(=O)*

In the case of `CC[C@H](C)[C@H](NC(=O)[C@H](CO)NC(=O)[C@H](Cc1ccc(O)cc1)NC(=O)[C@H](CC(=O)O)NC(=O)[C@H](CO)NC(=O)[C@@H](NC(=O)[C@H](Cc1ccccc1)NC(=O)[C@@H](NC(=O)CNC(=O)[C@@H](N)CCC(=O)O)[C@@H](C)O)[C@@H](C)CC)C(=O)N[C@@H](C)C(=O)N[C@@H](CCSC)C(=O)N[C@@H](CC(=O)O)C(=O)N[C@@H](CCCCN)C(=O)N[C@H](C(=O)N[C@@H](CCCCNC(=O)CCCCCCCCCCCCCCC(=O)O)C(=O)N[C@@H](CCC(N)=O)C(=O)N[C@@H](CCC(N)=O)C(=O)N[C@@H](CC(=O)O)C(=O)N[C@@H](Cc1ccccc1)C(=O)N[C@H](C(=O)N[C@@H](CC(N)=O)C(=O)N[C@@H](Cc1c[nH]c2ccccc12)C(=O)N[C@@H](CC(C)C)C(=O)N[C@@H](CC(C)C)C(=O)N[C@@H](C)C(=O)N[C@@H](CCC(N)=O)C(=O)N[C@@H](CCCCN)C(=O)NCC(=O)N[C@@H](CCCCN)C(=O)N[C@@H](CCCCN)C(=O)N[C@@H](CC(N)=O)C(=O)N[C@@H](CC(=O)O)C(=O)N[C@@H](Cc1c[nH]c2ccccc12)C(=O)N[C@@H](CCCCN)C(=O)N[C@@H](Cc1c[nH]cn1)C(=O)N[C@@H](CC(N)=O)C(=O)O)C(C)C)[C@@H](C)CC` [mGIPAnt‐1] (H-EGTFISDYSIAMDKIK(C16 diacid)QQDFVNWLLAQKGKKNDWKHN-OH), in data set [1], the “intrinsic activity (activation of human GIP receptor, cAMP)” value was “no activation”. For the same compound, the “intrinsic activity (activation of mouse GIP receptor, cAMP)” value in data set [2] is “no activation”. Besides, the half-life in data set [3] (calculated between t = 1.5 h and 32 h, n = 6) is around 7.2 h. Besides, in data set [3] (n = 6, read-out: time of peak plasma concentration), the Tmax came out at 1.5 h.

What is called half-life is the time in which the quantity being followed falls by half.

These data come from article PMC9544171, “Glucose‐dependent insulinotropic polypeptide receptor antagonist treatment causes a reduction in weight gain in ovariectomised high fat diet‐fed mice” (British Journal of Pharmacology, 2022).
